Reference: ChEMBL document CHEMBL1255344, “Buthionine sulfoximine has anti-Trypanosoma cruzi activity in a murine model of acute Chagas' disease and enhances the efficacy of nifurtimox” (Antimicrob Agents Chemother, 2008)
Activity calls are given as the source filed them. The rule behind the calls is not given here.

Tests used:
[1] = system: Trypanosoma cruzi; experiment: Antitrypanosomal activity against Trypanosoma cruzi clone Dm28c metacyclic trypomastigotes infected in BALB/c mouse assessed as increase in survival rate at 220 mg/kg/day, ip measured after 20 days (reference value: 25%); format: functional
[2] = system: Mus musculus; experiment: Toxicity in BALB/c mouse at 220 mg/kg/day, ip measured after 20 days; format: organism-based; parameters: route intraperitoneal; details: in vivo, 480 h
[3] = system: Trypanosoma cruzi; experiment: Antitrypanosomal activity against Trypanosoma cruzi clone Dm28c metacyclic trypomastigotes infected in BALB/c mouse assessed as increase in survival rate at 10 mg/kg/day, ip measured after 20 days; format: functional; details: 480 h, route intraperitoneal
[4] = system: Trypanosoma cruzi; experiment: Antitrypanosomal activity against Trypanosoma cruzi clone Dm28c metacyclic trypomastigotes infected in mouse assessed as decrease in heart parasitemia at 30 mg/kg/day, ip measured after 20 days; format: functional, organism-based
[5] = system: Trypanosoma cruzi; experiment: Antitrypanosomal activity against Trypanosoma cruzi clone Dm28c metacyclic trypomastigotes infected in mouse assessed as decrease in heart parasitemia at 220 mg/kg/day, ip measured after 20 days; format: functional, organism-based
[6] = system: Trypanosoma cruzi; experiment: Antitrypanosomal activity against Trypanosoma cruzi clone Dm28c metacyclic trypomastigotes infected in mouse assessed as decrease in heart parasite burden at 30 mg/kg/day, ip measured after 20 days; format: functional, organism-based
[7] = system: Trypanosoma cruzi; experiment: Antitrypanosomal activity against Trypanosoma cruzi clone Dm28c metacyclic trypomastigotes infected in BALB/c mouse assessed as increase in survival rate at 30 mg/kg/day, ip measured after 20 days; format: functional, organism-based
[8] = system: Trypanosoma cruzi; experiment: Antitrypanosomal activity against Trypanosoma cruzi clone Dm28c metacyclic trypomastigotes infected in BALB/c mouse assessed as increase in survival rate at 2.5 mg/kg/day, ip measured after 20 days; format: functional, organism-based
[9] = system: Trypanosoma cruzi; experiment: Antitrypanosomal activity against Trypanosoma cruzi clone Dm28c metacyclic trypomastigotes infected in mouse assessed as decrease in heart parasite burden at 220 mg/kg/day, ip measured after 20 days; format: functional, organism-based

CCCCS(=N)(=O)CCC(N)C(=O)O (stereo not given) [BUTHIONINE SULFOXIMINE]
Activity [1]: Active
survival at 220 mg/kg/day ([1]; 480 h, route intraperitoneal): ≤ 80%
Activity [2]: Non-toxic
survival at 10 mg/kg/day [3]: ≤ 100%
Activity [4]: inactive
Activity [5]: Active
Activity [6]: inactive
Activity [7]: inactive
Activity [8]: inactive
Activity [9]: Active
